{"source": "patent US20100150999A1", "about": "“THERAPY OF CANCER BASED ON TARGETING ADAPTIVE, INNATE AND/OR […] OF THE IMMUNE RESPONSE” (priority 2006, published 2010)", "key": {"[1]": {"system": "TC-1 cells expressing HPV16-E6 and HPV16-E7", "assay": "TC-1 tumor model in C57BL/6 mice (tumor growth, eradication, survival)", "type": "in vivo", "conditions": "for Effect on tumor growth: large TC-1 tumors, treated day 24/25", "description": "TC-1 cells expressing HPV16-E6 and HPV16-E7 proteins derived from primary mouse lung epithelial cells were obtained from the American Type Culture Collection (LGC Promochem, Molsheim, France) (14). EL4-E7 cells, a mouse lymphoma expressing HPV16-E7 (15). Cells were maintained in RPMI 1640 with GlutaMAX supplemented with 10% heat-inactivated fetal calf serum, 100 units/ml penicillin, 100 μg/ml streptomycin, 0.4 mg/ml geneticin and 5×10^−5 mol/l 2-mercaptoethanol (Life Technologies, Cergy-Pontoise, France).\nThirty μg of CpG ODNs or pU were diluted in 50 μl of Optimen medium (Gibco, Grand Island, N.Y., USA) and mixed with 60 μg of DOTAP (Roche, Mannheim, Germany) diluted in 100 μl of Optimen. The rest of the reagents were diluted in PBS before injection. Cyclophosphamide (CTX) (Sigma, Steinheim, Germany) and doxorubicin (DOX) (Calbiochem, La Jolla, Calif., USA) were diluted respectively in PBS and in sterile water before injection. The different antigenic formulations and adjuvants were injected simultaneously except chemotherapeutic agents that were given 24 h before vaccine. Intravenous administrations were performed by retroorbital injection in a volume of 200 μl, intratumoral administrations were done by injection in a volume of 50 μl and subcutaneous administration were performed in 200 μl.\nTumor growth data were analyzed by non-linear mixed effect models using Monolix software (http://www.math.u-psud.fr/˜lavielle/monolix/). Mean diameters of tumors over time were fitted using the model described in (17) and treatments were compared using the Likelihood Ratio test. Kaplan-Meier plots were used to analyzed survival, and a log rank test was used to examine statistical significance of differences in the survival curves using Prism software (GraphPad Software, Inc. San Diego, USA). Data from in vivo CTL and tetramer staining were compared by ANOVA followed by Dunnett posttest. p values less than 0.05 were considered to be statistically significant."}, "TC-1 cells": {"system": "TC-1 cells", "conditions": "RAG1-/- mice, 2.5 mg CTX i.p. day 24", "description": "Specific pathogen-free 5-week-old female C57BL/6 mice were purchased from Charles River (L'Arbresle, France) and were kept in the Pasteur Institute animal facilities under pathogen-free conditions with water and food ad libitum. C57BL/6-RAG1^−/− mice were obtained from the Jackson Laboratory, USA. Experiments involving animals were conducted according to the institutional guidelines for animal care.\nTumor cells lines (5×10^5 TC-1 cells or 4×10^6 EL4-E7 cells) were inoculated into the shaved left back of C57BL/6 mice in 200 μl volume of PBS."}, "[2]": {"system": "regulatory T cells, myeloid cells, NK cells, tumor-specific CD8+ T cells", "assay": "Flow cytometric analysis of immune cells in spleen, draining lymph nodes and tumor after treatment", "type": "in vivo, mice", "description": "FIG. 9. Changes in immune cells after tritherapy on day 25. […] Groups of mice were sacrificed before treatment (day 0), 24 hour after CTX alone (day 1) or on days 4, 7 or 11 after tritherapy administration. Spleen, tumor draining lymph nodes and tumor were excised, ground to prepare the cell suspensions, stained and analyzed by flow cytometry. Pooled data of two experiments are shown (n=4-6 mice). Bars represent mean values and the error bars correspond to standard error of the mean. *<0.05 **<0.01. A) Percentage of CD4^+ cells that express CD25 and FoxP3. B) Percentage of CD4^+ cells that are CD25^− and FoxP3^+. C) Percentage of CD4^+ cells that express FoxP3. D) Percentage of CD8^+ cells that are tetramer^+ and CD44^+. E) Percentage of CD11c+ cells. F) Percentage of CD11 b^+ cells. G) Percentage of GR1+ cells. H) Percentage of CD11 b^+ GR1+ positive cells.\nFIG. 11. Phenotype of myeloid cells induced by tritherapy and by tumor growth. […] Tritherapy treated mice received on day 24, 2.5 mg CTX i.p and 24 h later, 50 μg CyaA-E7 and 30 μg CpG-B/DOTAP. PBS treated mice received 200 μl of PBS on day 25. […] Spleens were excised, ground to prepare the cell suspensions, stained and analyzed by flow cytometry. […]\nFACScalibur (Becton Dickinson, Franklin Lakes, N.J., USA) was used for flow cytometry and events were analyzed with CELLQuest software (Becton Dickinson, Franklin Lakes, N.J., USA)."}}, "data": [{"molecule": "O=P1(N(CCCl)CCCl)NCCCO1", "note": "(stereo not shown) [CTX, Cyclophosphamide]", "values": [{"measurement": "Effect on tumor growth", "setting": "[1]", "result": "significantly delayed tumor growth"}, {"measurement": "Effect on tumor growth", "setting": "[1]; listed as cyclophosphamide", "result": "transiently control tumor growth"}, {"measurement": "Induction of tumor regression / complete eradication", "setting": "[1]; without CyaA-E7, treated day 24/25", "result": "not able to induce the complete eradication"}, {"measurement": "Tumor growth delay", "setting": "TC-1 cells", "result": "not observed"}, {"measurement": "Percentage of CD25+FoxP3+/CD4+ in tumor-infiltrated lymphocytes", "setting": "[2]; four days after administration, from around 50%", "result": "below 30%"}, {"measurement": "Lymphodepletion", "setting": "[2]; spleen and lymph node, TC-1 tumor-bearing mice", "result": "transient lymphodepletion in spleen and lymph node that reverted by day 7"}]}, {"molecule": "polyinosinic-polycytidylic acid [PIC]", "values": [{"measurement": "Effect on tumor growth", "setting": "[1]", "result": "none of these TLR ligands administered alone had any effect on the tumor growth"}]}]}
